Source: US9150592B2, “Heterocyclic nuclear hormone receptor modulators” (AbbVie Inc., priority 2012, dated 2015)

What was measured:
[1] = target: T1, Glucocorticoid Receptor (GR) (Homo sapiens, UniProt P04150); assay: GR Fluorescence Polarization Assay (PolarScreen Glucocorticoid Receptor Competitor Assay, Red); settings: IC50 class ranges, read-out: GR binding
T1 construct: purchased Invitrogen P2893
T1 sequence (P04150 1-777): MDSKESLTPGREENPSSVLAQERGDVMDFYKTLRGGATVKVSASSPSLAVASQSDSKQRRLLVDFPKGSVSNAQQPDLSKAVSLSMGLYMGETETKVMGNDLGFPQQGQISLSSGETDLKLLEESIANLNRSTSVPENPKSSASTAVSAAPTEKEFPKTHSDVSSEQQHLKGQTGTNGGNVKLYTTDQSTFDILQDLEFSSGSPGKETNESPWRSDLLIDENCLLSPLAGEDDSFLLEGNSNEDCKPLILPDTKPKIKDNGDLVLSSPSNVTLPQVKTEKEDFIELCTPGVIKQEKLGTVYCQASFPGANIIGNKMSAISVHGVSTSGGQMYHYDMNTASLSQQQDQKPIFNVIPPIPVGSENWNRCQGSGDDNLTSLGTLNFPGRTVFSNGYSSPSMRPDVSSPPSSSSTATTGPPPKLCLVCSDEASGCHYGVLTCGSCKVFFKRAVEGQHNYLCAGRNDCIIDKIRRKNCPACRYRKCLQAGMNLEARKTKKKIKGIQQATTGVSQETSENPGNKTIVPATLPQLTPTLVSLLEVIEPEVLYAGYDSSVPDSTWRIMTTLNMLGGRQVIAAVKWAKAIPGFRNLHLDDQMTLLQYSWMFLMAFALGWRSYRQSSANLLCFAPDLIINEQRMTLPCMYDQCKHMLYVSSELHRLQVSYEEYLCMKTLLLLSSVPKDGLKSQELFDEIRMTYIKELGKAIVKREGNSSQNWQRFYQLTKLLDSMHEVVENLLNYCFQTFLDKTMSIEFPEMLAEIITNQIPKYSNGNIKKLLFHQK
Summary of the method: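 Competitive fluorescence-polarization assay using a red fluorescent glucocorticoid tracer with human GR in kit buffer. Compounds serially diluted 1:4 in DMSO, incubated with tracer and GR overnight at 4° C, then polarization read.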

[2] = test system: IL-6 in A549 cells stimulated with IL-1β; assay: A549 Cell Assay to Measure Inflammation Markers (inhibition of IL-1β-induced IL-6); type: cell-based; settings: Homo sapiens, A549, A549 Cell Assay to Measure Inflammation Markers; intrinsic activity, Emax class ranges
Summary of the method: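 Compound pre-incubated with A549 cells 1 h at 37 °C, then stimulated with IL-1β (1 ng/mL final, 0.1% DMSO). Supernatant IL-6 quantified by MSD immunoassay after a further incubation. IC50 and Emax derived.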

SMILES	IC50 [1] [nM]	Emax [2] [%]
CCn1nc(-c2ccccn2)c2c1N[C@@H](C)CS[C@H]2c1ccc(C#CC(C)(C)O)cc1C (single isomer, unassigned) [M.32, 4-(4-(1-ethyl-7-methyl-3-(pyridin-2-yl)-4,6,7,8-tetrahydro-1H-pyrazolo[3,4-e][1,4]thiazepin-4-yl)-3-methylphenyl)-2-methylbut-3-yn-2-ol]	< 100	> 70
CCn1nc(-c2ccccn2)c2c1N[C@H](C)CS[C@H]2c1ccc(CCCO)cc1C (single isomer, unassigned) [M.35, 3-(4-(1-ethyl-7-methyl-3-(pyridin-2-yl)-4,6,7,8-tetrahydro-1H-pyrazolo[3,4-e][1,4]thiazepin-4-yl)-3-methylphenyl)propan-1-ol]	< 100	> 70
CCn1nc(-c2ccccn2)c2c1N[C@@H](C)CS[C@H]2c1ccc(CCCO)cc1C (single isomer, unassigned) [M.36, 3-(4-(1-ethyl-7-methyl-3-(pyridin-2-yl)-4,6,7,8-tetrahydro-1H-pyrazolo[3,4-e][1,4]thiazepin-4-yl)-3-methylphenyl)propan-1-ol]	< 100	> 60
CCn1nc(-c2ccccn2)c2c1N[C@@H](C)CS[C@H]2c1ccc(CCC(C)(C)O)cc1C (single isomer, unassigned) [M.39, 4-(4-(1-ethyl-7-methyl-3-(pyridin-2-yl)-4,6,7,8-tetrahydro-1H-pyrazolo[3,4-e][1,4]thiazepin-4-yl)-3-methylphenyl)-2-methylbutan-2-ol]	< 100	> 70
CCn1nc(-c2ccccn2)c2c1N[C@H](C)CS[C@H]2c1ccc(CCC(C)(C)O)cc1C (single isomer, unassigned) [M.40, 4-(4-(1-ethyl-7-methyl-3-(pyridin-2-yl)-4,6,7,8-tetrahydro-1H-pyrazolo[3,4-e][1,4]thiazepin-4-yl)-3-methylphenyl)-2-methylbutan-2-ol]	< 100	> 70
Cc1cc(CCC(C)(C)O)ccc1[C@@H]1SC[C@H](C)Nc2c1c(-c1ccccn1)nn2C (single isomer, unassigned) [M.42, 4-(4-(1,7-dimethyl-3-(pyridin-2-yl)-4,6,7,8-tetrahydro-1H-pyrazolo[3,4-e][1,4]thiazepin-4-yl)-3-methylphenyl)-2-methylbutan-2-ol]	< 100	> 60
Cc1cc(CCC(C)(C)O)ccc1[C@@H]1SC[C@@H](C)Nc2c1c(-c1ccccn1)nn2C (single isomer, unassigned) [M.44, 4-(4-(1,7-dimethyl-3-(pyridin-2-yl)-4,6,7,8-tetrahydro-1H-pyrazolo[3,4-e][1,4]thiazepin-4-yl)-3-methylphenyl)-2-methylbutan-2-ol]	< 100	> 60
CCn1nc(-c2ccccn2)c2c1N[C@H](C)CS[C@H]2c1ccc(C(N)=O)cc1C (single isomer, unassigned) [M.46, 4-(1-ethyl-7-methyl-3-(pyridin-2-yl)-4,6,7,8-tetrahydro-1H-pyrazolo[3,4-e][1,4]thiazepin-4-yl)-3-methylbenzamide]	< 100	> 50
CCn1nc(-c2ccccn2)c2c1N[C@@H](C)CS[C@H]2c1ccc(C(N)=O)cc1C (single isomer, unassigned) [M.48, 4-(1-ethyl-7-methyl-3-(pyridin-2-yl)-4,6,7,8-tetrahydro-1H-pyrazolo[3,4-e][1,4]thiazepin-4-yl)-3-methylbenzamide]	< 100	> 50
Cc1cc(CCCO)ccc1[C@@H]1SC[C@@H](C)Nc2c1c(-c1ccccn1)nn2C (single isomer, unassigned) [M.51, 3-(4-(1,7-dimethyl-3-(pyridin-2-yl)-4,6,7,8-tetrahydro-1H-pyrazolo[3,4-e][1,4]thiazepin-4-yl)-3-methylphenyl)propan-1-ol]	< 100	< 50
